Earlier results on one compound are cited in patent US20230086007A1, “USE OF DENATONIUM BENZOATE AS A SEED TREATMENT FOR CROPS AS BIRD AND/OR INSECT REPELLENT” (KWS SAAT SE & Co. KGaA, priority 2020, published 2023).

The subject of the series is maize. Particulars: maize seed treatment; cited from earlier work.

Regarding `CN(C)C(=S)SSC(=S)N(C)C` [Thiram], the “effect on early seedling vigour” value was “significant reduction in early seedling vigour”.
